Measured values: PubChem BioAssay AID248 (DTP/NCI, 2004)
Values joined by “and” are separate entries in the source; they are usually repeats but may differ in a detail not shown here. Identical values can stand only once. Inconclusive results and toxic doses are left out.

Test system: L1210 leukemia ip in BDF1 mice, survival T/C
Experiment: NCI In Vivo Anticancer Drug Screen. Data for tumor model L1210 Leukemia (intraperitoneal) in B6D2F1 (BDF1) mice
Conditions: endpoint: mean survival time, higher = longer survival
Outline: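 Antitumor effect is assessed in tumor-bearing animals. Survival in the compound arm is compared with a vehicle-dosed control arm and expressed as their quotient.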

[1] = dose: 100.0 mg/kg/injection, schedule: Q01DX001 (ip), vehicle: Klucel (hydroxypropylcellulose) (HPC)
[2] = dose: 200.0 mg/kg/injection, schedule: Q01DX001 (ip), vehicle: Klucel (hydroxypropylcellulose) (HPC)
[3] = dose: 400.0 mg/kg/injection, schedule: Q01DX001 (ip), vehicle: Klucel (hydroxypropylcellulose) (HPC)
[4] = dose: 100.0 mg/kg/injection, schedule: Q01DX009 (ip), vehicle: saline

Compound: O=C(NC1CCC12CC2)c1ccc2ccccc2c1 (centres undefined)
- T/C (dose: 37.5 mg/kg/injection, schedule: Q04DX002 (ip), vehicle: saline with Tween-80): 97 % of control
- T/C (dose: 75.0 mg/kg/injection, schedule: Q04DX002 (ip), vehicle: saline with Tween-80): 93 % of control
- T/C (dose: 150.0 mg/kg/injection, schedule: Q04DX002 (ip), vehicle: saline with Tween-80): 93 % of control
- T/C (dose: 300.0 mg/kg/injection, schedule: Q04DX002 (ip), vehicle: saline with Tween-80): 93 % of control

Compound: C/C(=N/Nc1ccccc1)c1ccccn1
- T/C (dose: 100.0 mg/kg/injection, schedule: Q04DX003 (ip), vehicle: Klucel (hydroxypropylcellulose) (HPC)): 98 % of control
- T/C (dose: 200.0 mg/kg/injection, schedule: Q04DX003 (ip), vehicle: Klucel (hydroxypropylcellulose) (HPC)): 96 % of control
- T/C (dose: 400.0 mg/kg/injection, schedule: Q04DX003 (ip), vehicle: Klucel (hydroxypropylcellulose) (HPC)): 98 % of control

Compound: CSc1ncc(CO)c(NCc2ccco2)n1
- T/C [1]: 98 % of control
- T/C [2]: 98 % of control
- T/C [3]: 98 % of control

Compound: O=C(CC(O)(C(F)(F)F)C(F)(F)F)c1ccc(Cl)c([N+](=O)[O-])c1
- T/C (dose: 75.0 mg/kg/injection, schedule: Q01DX009 (ip), vehicle: Klucel (hydroxypropylcellulose) (HPC)): 102 % of control
- T/C (dose: 150.0 mg/kg/injection, schedule: Q01DX009 (ip), vehicle: Klucel (hydroxypropylcellulose) (HPC)): 100 % of control

Compound: COC(C)C(OC)OC (centres undefined)
- T/C [4]: 98 % of control
- T/C (dose: 100.0 mg/kg/injection, schedule: Q04DX003 (ip), vehicle: saline): 101 % of control
- T/C (dose: 200.0 mg/kg/injection, schedule: Q01DX009 (ip), vehicle: saline): 96 % of control
- T/C (dose: 200.0 mg/kg/injection, schedule: Q04DX003 (ip), vehicle: saline): 103 % of control
- T/C (dose: 400.0 mg/kg/injection, schedule: Q01DX009 (ip), vehicle: saline): 96 % of control
- T/C (dose: 400.0 mg/kg/injection, schedule: Q04DX003 (ip), vehicle: saline): 92 % of control

Compound: O=C(OCc1ccccc1CN1CCCCC1)c1ccc([N+](=O)[O-])cc1Cl
- T/C (dose: 100.0 mg/kg/injection, schedule: Q04DX002 (ip), vehicle: Klucel (hydroxypropylcellulose) (HPC)): 98 % of control
- T/C (dose: 200.0 mg/kg/injection, schedule: Q04DX002 (ip), vehicle: Klucel (hydroxypropylcellulose) (HPC)): 98 % of control
- T/C (dose: 400.0 mg/kg/injection, schedule: Q04DX002 (ip), vehicle: Klucel (hydroxypropylcellulose) (HPC)): 91 % of control

Compound: CC(=O)OCC1OC(NC(=O)NCCCl)C(OC(C)=O)C(OC(C)=O)C1OC(C)=O (centres undefined)
- T/C [1]: 101 % of control
- T/C [2]: 104 % of control
- T/C [3]: 104 % of control

Compound: CNc1nc(Cl)cc2c1ncn2C1OC(CO)C(O)C1O (centres undefined)
- T/C (dose: 100.0 mg/kg/injection, schedule: Q01DX005 (ip), vehicle: saline): 100 % of control
- T/C (dose: 200.0 mg/kg/injection, schedule: Q01DX005 (ip), vehicle: saline): 100 % of control

Compound: O=C(CNC(=O)c1ccc(C(=O)NCC(=O)Nc2ccc(C3=NCCN3)cc2)cc1)Nc1ccc(C2=NCCN2)cc1
- T/C (dose: 1.87 mg/kg/injection, schedule: Q01DX015 (ip), vehicle: methylcellulose (MC)): 102 % of control
- T/C (dose: 3.75 mg/kg/injection, schedule: Q01DX015 (ip), vehicle: methylcellulose (MC)): 103 % of control
- T/C (dose: 7.5 mg/kg/injection, schedule: Q01DX015 (ip), vehicle: methylcellulose (MC)): 100 % of control
- T/C (dose: 10.0 mg/kg/injection, schedule: Q01DX015 (ip), vehicle: methylcellulose (MC)): 102 % of control
- T/C (dose: 62.0 mg/kg/injection, schedule: Q01DX Z (ip), vehicle: carboxymethylcellulose (CMC)): 188 % of control
- T/C (dose: 125.0 mg/kg/injection, schedule: Q01DX Z (ip), vehicle: carboxymethylcellulose (CMC)): 233 % of control
- T/C (dose: 150.0 mg/kg/injection, schedule: Q01DX001 (ip), vehicle: methylcellulose (MC)): 154 % of control
- T/C (dose: 250.0 mg/kg/injection, schedule: Q01DX Z (ip), vehicle: carboxymethylcellulose (CMC)): 106 % of control
- T/C (dose: 300.0 mg/kg/injection, schedule: Q01DX001 (ip), vehicle: methylcellulose (MC)): 158 % of control
- T/C (dose: 600.0 mg/kg/injection, schedule: Q01DX001 (ip), vehicle: methylcellulose (MC)): 187 % of control and 201 % of control and 207 % of control
- T/C (dose: 900.0 mg/kg/injection, schedule: Q01DX001 (ip), vehicle: methylcellulose (MC)): 174 % of control and 262 % of control

Compound: CN(C)N=Nc1ccc(C(=O)NC(CCC(=O)NN)C(=O)NN)cc1 (centres undefined)
- T/C (dose: 100.0 mg/kg/injection, schedule: Q01DX001 (ip), vehicle: saline): 96 % of control
- T/C (dose: 200.0 mg/kg/injection, schedule: Q01DX001 (ip), vehicle: saline): 111 % of control
- T/C (dose: 400.0 mg/kg/injection, schedule: Q01DX001 (ip), vehicle: saline): 94 % of control

Compound: CC(C)CCN=C(N)N=C(N)N
- T/C (dose: 25.0 mg/kg/injection, schedule: Q01DX009 (ip), vehicle: saline): 105 % of control
- T/C (dose: 50.0 mg/kg/injection, schedule: Q01DX009 (ip), vehicle: saline): 107 % of control
- T/C [4]: 104 % of control
- T/C (dose: 100.0 mg/kg/injection, schedule: Q04DX002 (ip), vehicle: saline): 100 % of control
